# Reference: patent US11578102B2, “LAG3 binding peptides” (Leidos, Inc., priority 2020, dated 2023)
# Residues, ends and D or L forms follow the SMILES beside them.
# Target: T1, human LAG3/FGL1 interaction (Homo sapiens, UniProt P18627)
# T1 construct: purchased BPS Bioscience
# T1 sequence (P18627 23-450 limits assumed): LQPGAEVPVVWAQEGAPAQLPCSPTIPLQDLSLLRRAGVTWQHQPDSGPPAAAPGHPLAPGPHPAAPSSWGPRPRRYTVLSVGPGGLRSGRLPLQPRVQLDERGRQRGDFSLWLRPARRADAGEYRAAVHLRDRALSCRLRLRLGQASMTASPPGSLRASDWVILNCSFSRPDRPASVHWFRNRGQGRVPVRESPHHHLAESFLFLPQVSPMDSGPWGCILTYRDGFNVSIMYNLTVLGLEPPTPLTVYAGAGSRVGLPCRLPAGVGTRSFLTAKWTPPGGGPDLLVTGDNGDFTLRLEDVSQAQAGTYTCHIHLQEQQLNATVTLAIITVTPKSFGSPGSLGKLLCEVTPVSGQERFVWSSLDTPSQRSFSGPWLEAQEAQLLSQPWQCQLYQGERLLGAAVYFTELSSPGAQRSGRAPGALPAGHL
# Assay: Human LAG3/FGL1 TR-FRET Binding Assay (BPS Bioscience)
# Settings: peptides tested at 100, 33, and 11 μM; 1 hr at RT; read-out: IC50 in LAG3:FLG1 TR-FRET Assay
# Procedure: This example tested the ability of peptides to inhibit the interaction between human LAG3 and FGL1. The peptides were tested using a Human LAG3/FGL1 TR-FRET Binding Assay (BPS Bioscience) carried out according to the manufacturer's instructions.
# Peptides 6, 41, 68, 69, 115, 146, 154, and 155 were tested at 100, 33, and 11 μM. Peptide LG56 ([…]; SEQ ID NO:14) served as a peptide positive control. Peptide 93 (SEQ ID NO:15) served as a negative or low activating peptide control. A neutralizing anti-human LAG3 antibody (BPS Bioscience Cat. #71219) was used as an antibody positive control.
# Reaction mixes were incubated 1 hr at RT before development. After development, plate was read in a Tecan M1000 TR-FRET instrument.
row,SMILES,IC50 [µM]
1,"CC[C@H](C)[C@H](NC(=O)[C@H](C)NC(=O)CNC(=O)[C@H](C)NC(=O)[C@H](CC(N)=O)NC(=O)[C@@H]1CCCN1C(=O)[C@H](Cc1ccc(O)cc1)NC(=O)[C@H](CCC(N)=O)NC(=O)[C@H](CCCCN)NC(=O)[C@H](CCC(N)=O)NC(=O)[C@@H](NC(=O)[C@H](CCC(N)=O)NC(=O)[C@H](CCC(=O)O)NC(=O)[C@H](CCCCN)NC(=O)[C@@H](NC(=O)[C@@H]1CCCN1C(=O)[C@H](C)NC(=O)[C@@H]1CCCN1C(=O)[C@@H](NC(=O)[C@@H](N)CCCNC(=N)N)C(C)C)C(C)C)C(C)C)C(=O)O [Low Activity Peptide, reference compound] (H-RVPAPVKEQVQKQYPNAGAI-OH; N-terminus and C-terminus assumed)",> 100
2,CC[C@H](C)[C@H](NC(=O)[C@H](CC(=O)O)NC(=O)[C@H](CC(=O)O)NC(=O)[C@H](C)NC(=O)[C@H](Cc1ccc(O)cc1)NC(=O)[C@H](CC(C)C)NC(=O)[C@H](CCCNC(=N)N)NC(=O)[C@@H](NC(=O)[C@H](CCC(=O)O)NC(=O)[C@H](CCCCN)NC(=O)[C@H](CCC(=O)O)NC(=O)[C@H](CC(=O)O)NC(=O)[C@H](Cc1c[nH]c2ccccc12)NC(=O)[C@H](CC(=O)O)NC(=O)[C@H](CCSC)NC(=O)[C@H](CCCNC(=N)N)NC(=O)[C@H](Cc1ccccc1)NC(=O)[C@@H](N)C(C)C)C(C)C)C(=O)N[C@@H](CC(C)C)C(=O)N[C@@H](CC(C)C)C(=O)O [Peptide 146] (H-VFRMDWDEKEVRLYADDILL-OH; N-terminus and C-terminus assumed),7.2
3,CSCC[C@H](NC(=O)[C@@H](NC(=O)[C@H](CCC(=O)O)NC(=O)[C@H](CC(C)C)NC(=O)[C@@H](NC(=O)[C@H](CCC(N)=O)NC(=O)[C@H](CCC(=O)O)NC(=O)[C@H](CCCNC(=N)N)NC(=O)[C@H](CC(N)=O)NC(=O)[C@H](Cc1c[nH]cn1)NC(=O)[C@@H](N)CCC(=O)O)C(C)C)C(C)C)C(=O)N[C@@H](Cc1ccc(O)cc1)C(=O)N[C@@H](CO)C(=O)N[C@@H](Cc1ccccc1)C(=O)N[C@@H](CCC(N)=O)C(=O)N[C@H](C(=O)N[C@@H](CC(N)=O)C(=O)N[C@@H](CC(=O)O)C(=O)N[C@@H](Cc1ccc(O)cc1)C(=O)N[C@@H](Cc1ccccc1)C(=O)O)C(C)C [Peptide 154] (H-EHNREQVLEVMYSFQVNDYF-OH; N-terminus and C-terminus assumed),7.2
